Results: PMC12669672, “Structural insights into selective and dual antagonism of EP2 and EP4 prostaglandin receptors” (The EMBO Journal, 2025)
Values joined by “and” are separate entries in the source; they are usually repeats but may differ in a detail not shown here. Equal values may be shown once.

Legend:
Assay type in all cases: cell-based
[1] = molecular target: T1, constitutively active EP2 M116A (Homo sapiens, UniProt P43116, M116A); test: GloSensor cAMP assay, inhibition of constitutive activity
T1 construct: The full-length EP2 or EP4 was cloned into the pcDNA3.1 vector; FLAG (N); expressed in transfected cells; host or cells: AD293 cells
T1 sequence (P43116 whole entry M116A): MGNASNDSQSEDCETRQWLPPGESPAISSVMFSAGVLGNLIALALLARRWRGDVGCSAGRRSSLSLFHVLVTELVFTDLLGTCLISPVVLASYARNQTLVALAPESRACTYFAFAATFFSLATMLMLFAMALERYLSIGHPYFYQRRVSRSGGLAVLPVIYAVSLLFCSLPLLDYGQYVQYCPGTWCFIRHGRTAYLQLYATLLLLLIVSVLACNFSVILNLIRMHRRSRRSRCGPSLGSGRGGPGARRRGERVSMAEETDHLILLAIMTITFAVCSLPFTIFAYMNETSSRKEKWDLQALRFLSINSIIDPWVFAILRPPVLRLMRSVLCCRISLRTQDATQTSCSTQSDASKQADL
Experimental: (§1) The full-length EP2 or EP4 was cloned into the pcDNA3.1 vector (Invitrogen), incorporating an N-terminal FLAG tag. AD293 cells were seeded in six-well plates containing DMEM supplemented with 10% dialyzed FBS 1 day prior to transfection. Following overnight growth, cells were transfected with a 1:1 ratio of receptor construct and GloSensor22F cAMP biosensor (Promega) plasmids.
(§2) Twenty-four hours post-transfection, the cells were transferred to CO2-independent media containing 2% GloSensor cAMP Reagent (Promega) and distributed into 384-well assay plates at a density of 4000 cells per well in 10 μL. […] The plates were then incubated at 37 °C for an additional hour before luminescence measurements were taken using an EnVision plate reader.
(§3) Data analysis was performed using GraphPad Prism software v8.0.1. A nonlinear regression analysis, employing a sigmoidal dose–response model, was conducted to determine the Emax values and half-maximum inhibitory concentrations (IC50) for each compound tested.

[2] = molecular target: T2, constitutively active EP2 S305A (Homo sapiens, UniProt P43116, S305A); test: as above; conditions: for cAMP activity (∆pIC50 from EP2 WT): PF-04418948, S305A
T2 construct: The full-length EP2 or EP4 was cloned into the pcDNA3.1 vector; FLAG (N); expressed in transfected cells; host or cells: AD293 cells
T2 sequence (P43116 whole entry S305A): as the sequence (P43116 whole entry M116A) above, with A116M, S305A counted along it
Experimental: as §1, §2, §3

[3] = molecular target: T3, constitutively active EP2 S308A (Homo sapiens, UniProt P43116, S308A); test: as above
T3 construct: The full-length EP2 or EP4 was cloned into the pcDNA3.1 vector; FLAG (N); expressed in transfected cells; host or cells: AD293 cells
T3 sequence (P43116 whole entry S308A): as the sequence (P43116 whole entry M116A) above, with A116M, S308A counted along it
Experimental: as §1, §2, §3

[4] = molecular target: T4, constitutively active EP2 S86A (Homo sapiens, UniProt P43116, S86A); test: as above; conditions: for cAMP activity (∆pIC50 from EP2 WT): PF-04418948, S86A
T4 construct: The full-length EP2 or EP4 was cloned into the pcDNA3.1 vector; FLAG (N); expressed in transfected cells; host or cells: AD293 cells
T4 sequence (P43116 whole entry S86A): as the sequence (P43116 whole entry M116A) above, with S86A, A116M counted along it
Experimental: as §1, §2, §3

[5] = molecular target: T5, constitutively active EP2 T82A (Homo sapiens, UniProt P43116, T82A); test: as above
T5 construct: The full-length EP2 or EP4 was cloned into the pcDNA3.1 vector; FLAG (N); expressed in transfected cells; host or cells: AD293 cells
T5 sequence (P43116 whole entry T82A): as the sequence (P43116 whole entry M116A) above, with T82A, A116M counted along it
Experimental: as §1, §2, §3

[6] = molecular target: T6, constitutively active EP2 W186A (Homo sapiens, UniProt P43116, W186A); test: as above
T6 construct: The full-length EP2 or EP4 was cloned into the pcDNA3.1 vector; FLAG (N); expressed in transfected cells; host or cells: AD293 cells
T6 sequence (P43116 whole entry W186A): as the sequence (P43116 whole entry M116A) above, with A116M, W186A counted along it
Experimental: as §1, §2, §3

[7] = molecular target: T7, constitutively active EP2 WT (Homo sapiens, UniProt P43116); test: as above
T7 construct: The full-length EP2 or EP4 was cloned into the pcDNA3.1 vector; FLAG (N); expressed in transfected cells; host or cells: AD293 cells
T7 sequence (P43116 whole entry): as the sequence (P43116 whole entry M116A) above, with A116M counted along it
Experimental: as §1, §2, §3

[8] = molecular target: T8, EP2-I85V (Homo sapiens, UniProt P43116, I85V); test: GloSensor cAMP assay, antagonism of PGE2-induced cAMP, chimeric studies; conditions: single experiments 1st-3rd
T8 construct: The full-length EP2 or EP4 was cloned into the pcDNA3.1 vector; FLAG (N); expressed in transfected cells; host or cells: AD293 cells
T8 sequence (P43116 whole entry I85V): as the sequence (P43116 whole entry M116A) above, with I85V, A116M counted along it
Experimental: as §1, §2, §3

[9] = molecular target: T9, EP2-M116L (Homo sapiens, UniProt P43116, M116L); test: as above; conditions: single experiments 1st-3rd
T9 construct: The full-length EP2 or EP4 was cloned into the pcDNA3.1 vector; FLAG (N); expressed in transfected cells; host or cells: AD293 cells
T9 sequence (P43116 whole entry M116L): as the sequence (P43116 whole entry M116A) above, with A116L counted along it
Experimental: as §1, §2, §3

[10] = 1 h, PF-04418948 log([M]) -5.00, read-out: % cAMP activity (normalized to WT)
[11] = 1 h, PF-04418948 log([M]) -6.00, read-out: % cAMP activity (normalized to WT)
[12] = 1 h, PF-04418948 log([M]) -10.00, read-out: % cAMP activity (normalized to WT)
[13] = 1 h, PF-04418948 log([M]) -11.00, read-out: % cAMP activity (normalized to WT)
[14] = no PGE2, pIC50 mutant - pIC50 WT, mean
[15] = 1 h, PF-04418948 log([M]) -8.00, read-out: % cAMP activity (normalized to WT)
[16] = 1 h, PF-04418948 log([M]) -9.00, read-out: % cAMP activity (normalized to WT)
[17] = 1 h, PF-04418948 log([M]) -12.00, read-out: % cAMP activity (normalized to WT)
[18] = 1 h, ligand log([M]) -5, Fig. S7B, read-out: % cAMP activity (normalized to WT)
[19] = 1 h, ligand log([M]) -6, Fig. S7B, read-out: % cAMP activity (normalized to WT)
[20] = 1 h, ligand log([M]) -7, Fig. S7B, read-out: % cAMP activity (normalized to WT)
[21] = 1 h, ligand log([M]) -8, Fig. S7B, read-out: % cAMP activity (normalized to WT)
[22] = 1 h, ligand log([M]) -9, Fig. S7B, read-out: % cAMP activity (normalized to WT)
[23] = 1 h, ligand log([M]) -10, Fig. S7B, read-out: % cAMP activity (normalized to WT)
[24] = 1 h, ligand log([M]) -12, Fig. S7B, read-out: % cAMP activity (normalized to WT)

COc1ccc2cc(OCC3(C(=O)O)CN(C(=O)c4ccc(F)cc4)C3)ccc2c1 [PF-04418948]
remaining activity at 10 µM [1, 10]: 5.6% | remaining activity at 1 µM [1, 11]: 38.1% | remaining activity at 0.0001 µM [1, 12]: 245% | remaining activity at 10 pM [1, 13]: 252% | cAMP activity (∆pIC50 from EP2 WT) ([1]; PF-04418948, M116A, Mean): -1.518 | ΔpIC50 [1, 14]: -1.52 ± 0.12 | cAMP activity (∆pIC50 from EP2 WT) ([2]; Mean): -1.012 | cAMP activity (∆pIC50 from EP2 WT) ([2]; single experiments 1st-3rd): -1.044 and -1.010 and -0.982 | ΔpIC50 [2, 14]: -1.01 ± 0.02 | remaining activity at 0.01 µM [3, 15]: 45.3% | remaining activity at 0.001 µM [3, 16]: 80.9% | remaining activity at 0.0001 µM [3, 12]: 93% | remaining activity at 10 pM [3, 13]: 84.1% | remaining activity at 1 pM [3, 17]: 68.1% | cAMP activity (∆pIC50 from EP2 WT) ([3]; PF-04418948, S308A, Mean): -0.283 | ΔpIC50 [3, 14]: -0.28 ± 0.10 | remaining activity at 10 µM [4, 10]: 14.6% | remaining activity at 1 µM [4, 11]: 35.7% | cAMP activity (∆pIC50 from EP2 WT) ([4]; Mean): -0.316 | cAMP activity (∆pIC50 from EP2 WT) ([4]; single experiments 1st-3rd): -0.355 and -0.329 and -0.263 | remaining activity at 0.0001 µM [5, 12]: 302% | remaining activity at 1 pM [5, 17]: 299% | cAMP activity (∆pIC50 from EP2 WT) ([5]; PF-04418948, T82A, Mean): -0.369 | ΔpIC50 [5, 14]: -0.37 ± 0.10 | remaining activity at 1 µM [6, 11]: 49.1% | remaining activity at 0.01 µM [6, 15]: 95.7% | remaining activity at 0.001 µM [6, 16]: 94.5% | remaining activity at 0.0001 µM [6, 12]: 103% | remaining activity at 10 pM [6, 13]: 108% | remaining activity at 1 pM [6, 17]: 90.9% | cAMP activity (∆pIC50 from EP2 WT) ([6]; PF-04418948, W186A, Mean): -2.049 | ΔpIC50 [6, 14]: -2.05 ± 0.09 | remaining activity at 0.1 µM ([7]; 1 h, PF-04418948 log([M]) -7.00, read-out: % cAMP activity (normalized to WT)): 10.6% | remaining activity at 0.01 µM [7, 15]: 44.6% | remaining activity at 0.001 µM [7, 16]: 89.9% | remaining activity at 0.0001 µM [7, 12]: 92.4% | remaining activity at 10 pM [7, 13]: 102% | remaining activity at 1 pM [7, 17]: 104% | cAMP activity (∆pIC50 from EP2 WT) ([7]; PF-04418948, WT, single experiments 1st-3rd): -0.051 and 0.118 and -0.068 | remaining activity at 10 µM [8, 18]: 4.76% | remaining activity at 1 µM [8, 19]: 5.53% | remaining activity at 0.1 µM [8, 20]: 21.6% | remaining activity at 0.01 µM [8, 21]: 78.7% | remaining activity at 0.001 µM [8, 22]: 105% | remaining activity at 0.0001 µM [8, 23]: 94.6% | remaining activity at 10 pM ([8]; 1 h, ligand log([M]) -11, Fig. S7B, read-out: % cAMP activity (normalized to WT)): 103% | remaining activity at 1 pM [8, 24]: 91.7% | cAMP activity (∆pIC50 from EP2 WT) ([8]; Appendix Fig. S7A): -0.301 and -0.398 and -0.280 | remaining activity at 10 µM [9, 18]: 11.8% | remaining activity at 1 µM [9, 19]: 12% | remaining activity at 0.1 µM [9, 20]: 36.7% | remaining activity at 0.01 µM [9, 21]: 98.5% | remaining activity at 0.001 µM [9, 22]: 132% | remaining activity at 0.0001 µM [9, 23]: 123% | remaining activity at 1 pM [9, 24]: 116% | cAMP activity (∆pIC50 from EP2 WT) ([9]; Appendix Fig. S7A): -0.408 and -0.463 and -0.307
